In ChEMBL document CHEMBL1125174, “Conformationally restricted polysubstituted biphenyl derivatives with angiotensin II receptors antagonist properties” (J Med Chem, 1991):

Organism: Oryctolagus cuniculus
Assay: The compound was tested for antagonism of AII-induced contraction of rabbit aorta rings.
Format: functional
Conditions: read-out: pA2 (converted)

SMILES | Kb [nM]
CCCCc1nc(Cl)c(CO)n1Cc1ccc(-c2ccccc2C(=O)O)cc1 | 79.4
CCCCc1nc(CO)c(Cl)n1Cc1cc(OC)c(-c2ccccc2C(=O)O)c(OC)c1 | 3160
